EC (1.5-fold) and maximal fold induction data for twelve compounds are collected here from US11827646B2, “Compounds for treating spinal muscular atrophy” (Hoffmann-La Roche Inc., priority 2014, dated 2023).

For experiment [1], the system named is full length SMN2 minigene mRNA (HEK293H cells stably transfected with SMN2-A minigene). The experiment is described as follows: SMN2 minigene mRNA splicing RT-qPCR assay in cultured cells. Format: cell-based. As to conditions: Homo sapiens, HEK293-H, 24 hours, 7-point concentration curve, 1.5-fold increase relative to vehicle, read-out: EC1.5x minigene (EC1.5x concentration for production of full length SMN2 minigene mRNA). An excerpt:
The term “EC1.5x concentration for production of full length SMN2 minigene mRNA” (or “EC1.5x minigene”) is defined as that concentration of test compound that 1 s effective m increasing the amount of full length SMN2 minigene mRNA to a level 1.5-fold greater relative to that in vehicle-treated cells.
The reverse transcription-quantitative PCR-based (RT-qPCR) assay is used to quantify the level of the full length SMN2 minigene (referred to herein by the term “FL SMN2mini”) mRNA containing SMN2 exon 7 in a HEK293H cell line stably transfected with said minigene and treated with a test compound. Materials used and respective sources are listed below in Table 1.
The SMN2-A minigene construct was prepared as described in International Patent Application WO2009/151546A1 page 145 paragraph [00400] to page 147 paragraph [00412](incl. FIG. 1 and FIG. 3 therein).
HEK293H cells stably transfected with the SMN2-A minigene construct (10,000 cells/well) are seeded in 200 μL of cell culture medium (DMEM plus 10% FBS, with 200 μg/mL hygromycin) in 96-well flat-bottom plates and the plate is immediately swirled to ensure proper dispersal of cells and the formation of an even monolayer of cells. Cells are allowed to attach for 6 hours. Test compounds are serially diluted 3.16-fold in 100% DMSO to generate a 7-point concentration curve. A solution of test compound (1 μL, 200× in DMSO) is added to each cell-containing well and the plate is incubated for 24 hours in a cell culture incubator (37° C., 5% CO2, 100% relative humidity). 2 replicates are prepared for each test compound concentration. The cells are then lysed in the Cells-To-Ct lysis buffer and the lysate is stored at −80° C.
Full length SMN2-A minigene and GAPDH mRNA are quantified using the primers and probes referenced in Table 2. Primer SMN Forward A (SEQ ID NO.1) hybridizes to a nucleotide sequence in exon 7 (nucleotide 22 to nucleotide 40), primer SMN Reverse A (SEQ ID NO.2) hybridizes to a nucleotide sequence in the coding sequence of Firefly luciferase, SMN Probe A (SEQ ID NO.3) hybridizes to a nucleotide sequence in exon 7 (nucleotide 50 to nucleotide 54) and exon 8 (nucleotide 1 to nucleotide 21). The combination of these three oligonucleotides detects only SMN1 or SMN2 minigenes (RT-qPCR) and will not detect endogenous SMN1 or SMN2 genes.
The SMN forward and reverse primers are used at final concentrations of 0.4 μM. The SMN probe is used at a final concentration of 0.15 μM. The GAPDH primers are used at final concentrations of 0.2 μM and the probe at 0.15 μM.
The SMN2-minigene GAPDH mix (15 μL total volume) is prepared by combining 7.5 μL of 2×RT-PCR buffer, 0.4 μL of 25×RT-PCR enzyme mix, 0.75 μL of 20×GAPDH primer-probe mix, 4.0075 μL of water, 2 μL of 10-fold diluted cell lysate, 0.06 μL of 100 µM SMN forward primer, 0.06 μL of 100 μM SMN reverse primer, and 0.225 μL of 100 μM SMN probe.
PCR is carried out at the following temperatures for the indicated time: Step 1: 48° C. (15 min); Step 2: 95° C. (10 min); Step 3: 95° C. (15 sec); Step 4: 60° C. (1 min); then repeat Steps 3 and 4 for a total of 40 cycles.
Each reaction mixture contains both SMN2-A minigene and GAPDH primers/probe sets (multiplex design), allowing simultaneous measurement of the levels of two transcripts.
The increase in the abundance of the FL SMN2mini mRNA relative to that in cells treated with vehicle control is determined from real-time PCR data using a modified ΔΔCt method (as described in Livak and Schmittgen, Methods, 2001, 25:402-8). The amplification efficiency E is calculated from the slope of the amplification curve for FL SMN2mini and GAPDH individually. The abundance of FL SMN2mini and GAPDH mRNA are then calculated as (1+E)^−Ct, where Ct is the threshold value for each amplicon. The abundance of FL SMN2mini mRNA is normalized to GAPDH mRNA abundance. […]
In general terms: Real-time PCR tracks product formation cycle by cycle.

Experiment [2] concerns SMN protein in SMA patient fibroblast cells (GM03813). The experiment is described as follows: SMN protein assay in cultured cells (SMN HTRF). Format: cell-based. As to conditions: Homo sapiens, SMA Type 1 patient fibroblasts, 48 hours; for EC (1.5-fold): 7-point concentration curve, 1.5 times SMN protein vs vehicle, read-out: EC1.5x SMN protein (EC1.5x concentration for SMN protein expression); for maximal fold induction: fold increase relative to vehicle control, read-out: max. fold increase of SMN protein. An excerpt:
The term “EC1.5x concentration for SMN protein expression” (or “EC1.5x SMN protein”) is defined as that concentration of test compound that is effective in producing 1.5 times the amount of SMN protein in an SMA patient fibroblast cell compared to the amount produced from the vehicle control.
The SMN HTRF (homogeneous time resolved fluorescence) assay is used to quantify the level of SMN protein in SMA patient fibroblast cells treated with test compounds. Materials used and respective sources are listed below in Table 4.
Cells are thawed and cultured in DMEM-10% FBS for 72 hours. Cells are trypsinized, counted and re-suspended to a concentration of 25,000 cells/mL in DMEM-10% FBS. The cell suspensions are plated at 5,000 cells per well in a 96 well microtiter plate and incubated for 3 to […]. Test compounds are serially diluted 3.16-fold in 100% DMSO to generate a 7-point concentration curve. 1 μL of test compound solution is transferred to cell-containing wells and cells are incubated for 48 hours in a cell culture incubator (37° C., 5% CO2, […]). Triplicate samples are set up for each test compound concentration. After 48 hours, the supernatant is removed from the wells and 25 μL of the RIPA lysis buffer, containing protease inhibitors, is added to the wells and incubated with shaking at room temperature for 1 hour. 25 μL of the diluent is added and then 35 μL of the resulting lysate is transferred to a 384-well plate, where each well contains 5 μL of the antibody solution (1:100 dilution of anti-SMN d2 and anti-SMN kryptate in SMN reconstitution buffer). The plate is centrifuged for 1 minute to bring the solution to the bottom of the wells, then incubated overnight at room temperature. Fluorescence for each well of the plate at 665 nm and 620 nm is measured on an EnVision multilabel plate reader (Perkin-Elmer).
The normalized fluorescence signal is calculated for each sample, Blank and vehicle control well by dividing the signal at 665 nm by the signal at 620 nm. Normalizing the signal accounts for possible fluorescence quenching due to the matrix effect of the lysate. The ΔF value (a measurement of SMN protein abundance as a percent value) for each sample well is calculated by subtracting the normalized average fluorescence for the Blank control wells from the normalized fluorescence for each sample well, then dividing this difference by the normalized average fluorescence for the Blank control wells and multiplying the resulting value by 100. The ΔF value for each sample well represents the SMN protein abundance from test compound-treated samples. The ΔF value for each sample well is divided by the ΔF value for the vehicle control wells to calculate the fold increase in SMN protein abundance relative to the vehicle control. Table 5 provides EC1.5x concentrations for SMN protein expression that was obtained from the 7-point concentration data generated according to the above procedure for particular compounds of the present invention.
Table 6 provides the maximum fold increase of SMN protein that was obtained from the 7-point concentration data generated according to the above procedure for particular compounds of the present invention
For orientation: Time-resolved FRET reads energy transfer from a long-lived donor to a nearby acceptor.

Take `Cc1cn2nc(-c3cc(=O)n4cc(N5CCN(C)CC5)ccc4n3)ccc2n1` [Example 1, 2-(2-methylimidazo[1,2-b]pyridazin-6-yl)-7-(4-methylpiperazin-1-yl)pyrido[1,2-a]pyrimidin-4-one]: the EC (1.5-fold) in experiment [1] was determined as 0.0035 µM; in experiment [2], 0.0108 µM. For the same compound, the maximal fold induction in experiment [2] is 1.84.
As for `Cc1cn2nc(-c3cc(=O)n4cc(N5CCN6CCC[C@@H]6C5)ccc4n3)ccc2n1` [Example 2, 7-[(8aR)-3,4,6,7,8,8a-hexahydro-1H-pyrrolo[1,2-a]pyrazin-2-yl]-2-(2-methylimidazo[1,2-b]pyridazin-6-yl)pyrido[1,2-a]pyrimidin-4-one], the EC (1.5-fold) in experiment [1] was 0.0038 µM. Moreover, in experiment [2], the EC (1.5-fold) was determined as 0.0198 µM and the maximal fold induction came out at 1.76.
Consider `Cc1cn2nc(-c3cc(=O)n4cc(N5CCN6CCC[C@H]6C5)ccc4n3)cc(C)c2n1` [Example 3, 7-[(8aS)-3,4,6,7,8,8a-hexahydro-1H-pyrrolo[1,2-a]pyrazin-2-yl]-2-(2,8-dimethylimidazo[1,2-b]pyridazin-6-yl)pyrido[1,2-a]pyrimidin-4-one], for which the EC (1.5-fold) in experiment [1] is 0.0032 µM. Further, in experiment [2], the EC (1.5-fold) came to 0.0256 µM and the maximal fold induction was determined as 1.81.
On the same counts, the results for `Cc1cn2nc(-c3cc(=O)n4cc(N5CCN6CCC[C@@H]6C5)ccc4n3)cc(C)c2n1` [Example 4, 7-[(8aR)-3,4,6,7,8,8a-hexahydro-1H-pyrrolo[1,2-a]pyrazin-2-yl]-2-(2,8-dimethylimidazo[1,2-b]pyridazin-6-yl)pyrido[1,2-a]pyrimidin-4-one] are 0.0018 µM, 0.0157 µM and 1.76.
As to `Cc1cn2nc(-c3cc(=O)n4cc(N5CCN6CCC[C@@]6(C)C5)ccc4n3)cc(C)c2n1` [Example 5, 7-[(8aS)-8a-methyl-1,3,4,6,7,8-hexahydropyrrolo[1,2-a]pyrazin-2-yl]-2-(2,8-dimethylimidazo[1,2-b]pyridazin-6-yl)pyrido[1,2-a]pyrimidin-4-one], the figures for the EC (1.5-fold) in experiment [1] and in experiment [2] were 0.0006 µM and 0.0041 µM, respectively. For the same compound, in experiment [2], the maximal fold induction stood at 1.71.
Turning to `Cc1cn2nc(-c3cc(=O)n4cc(N5CCN6CCC[C@]6(C)C5)ccc4n3)cc(C)c2n1` [Example 6, 7-[(8aR)-8a-methyl-1,3,4,6,7,8-hexahydropyrrolo[1,2-a]pyrazin-2-yl]-2-(2,8-dimethylimidazo[1,2-b]pyridazin-6-yl)pyrido[1,2-a]pyrimidin-4-one], the values for the EC (1.5-fold) in experiment [1] and in experiment [2] were 0.0028 µM and 0.011 µM, respectively. Also, the maximal fold induction in experiment [2] came to 1.84.
Taken in the same sequence, the figures for `Cc1cn2nc(-c3cc(=O)n4cc(N5C[C@@H](C)N[C@@H](C)C5)ccc4n3)cc(C)c2n1` [Example 7, 2-(2,8-dimethylimidazo[1,2-b]pyridazin-6-yl)-7-[(3S,5R)-3,5-dimethylpiperazin-1-yl]pyrido[1,2-a]pyrimidin-4-one] were 0.0037 µM, 0.0155 µM and 1.76.
As for `Cc1cn2nc(-c3cc(=O)n4cc(N5CCN[C@@H](C)C5)ccc4n3)cc(C)c2n1` [Example 8, 2-(2,8-dimethylimidazo[1,2-b]pyridazin-6-yl)-7-[(3S)-3-methylpiperazin-1-yl]pyrido[1,2-a]pyrimidin-4-one], in experiment [1], the EC (1.5-fold) amounted to 0.0003 µM. Also, in experiment [2], the EC (1.5-fold) came out at 0.0059 µM and the maximal fold induction was 1.85.
For `Cc1cn2nc(-c3cc(=O)n4cc(N5CCN[C@H](C)C5)ccc4n3)cc(C)c2n1` [Example 9, 2-(2,8-dimethylimidazo[1,2-b]pyridazin-6-yl)-7-[(3R)-3-methylpiperazin-1-yl]pyrido[1,2-a]pyrimidin-4-one], the EC (1.5-fold) in experiment [1] was 0.0001 µM. For the same compound, in experiment [2], the EC (1.5-fold) was determined as 0.0025 µM and the maximal fold induction came to 1.92.
In the case of `Cc1cn2nc(-c3cc(=O)n4cc(N5CCCNCC5)ccc4n3)cc(C)c2n1` [Example 10, 7-(1,4-diazepan-1-yl)-2-(2,8-dimethylimidazo[1,2-b]pyridazin-6-yl)pyrido[1,2-a]pyrimidin-4-one], the EC (1.5-fold) is 0.0064 µM in experiment [1] and 0.0228 µM in experiment [2]. In addition, the maximal fold induction in experiment [2] stood at 1.95.
Taken in the same sequence, the figures for `Cc1cn2nc(-c3cc(=O)n4cc(N5CCN[C@@H](C)C5)ccc4n3)ccc2n1` [Example 11, 2-(2-methylimidazo[1,2-b]pyridazin-6-yl)-7-[(3S)-3-methylpiperazin-1-yl]pyrido[1,2-a]pyrimidin-4-one] were 0.0014 µM, 0.007 µM and 1.9.
In the case of `Cc1cn2nc(-c3cc(=O)n4cc(N5CCN[C@H](C)C5)ccc4n3)ccc2n1` [Example 12, 2-(2-methylimidazo[1,2-b]pyridazin-6-yl)-7-[(3R)-3-methylpiperazin-1-yl]pyrido[1,2-a]pyrimidin-4-one], the EC (1.5-fold) in experiment [1] is 0.0012 µM. Besides, in experiment [2], the EC (1.5-fold) turned out to be 0.0075 µM and the maximal fold induction came to 1.77.
